Where two headings read alike, the source gives them in different places. *1 amine or outer side, *2 acyl side, *3 side chain or, on linkers, in order; H or OH if unused. Where a SMILES comes first, the peptide text is derived from it. Bridges are numbered along the chain shown (N, C = ends). Where no end group is shown, it is not given here. [ ]: non-standard residue; d: D form. 4‑Aminomethyl‑phenylacetyl = 4-aminomethyl-phenylacetyl unit, its amine closes the lactam, O=C(Cc1ccc(CN[*:1])cc1)[*:2]; Trp(1-Me) = Cn1cc(C[C@H](N)C(=O)O)c2ccccc21; 2Nal = N[C@@H](Cc1ccc2ccccc2c1)C(=O)O; AEF = NCCOc1ccc(C[C@H](N)C(=O)O)cc1; 3Pal = N[C@@H](Cc1cccnc1)C(=O)O; αMeL = CC(C)C[C@](C)(N)C(=O)O; NMeK = CN[C@@H](CCCCN)C(=O)O; β3hK = NCCCC[C@H](N)CC(=O)O; dOrn = NCCC[C@@H](N)C(=O)O; Orn = NCCC[C@H](N)C(=O)O; Dab = NCC[C@H](N)C(=O)O; βAla = NCCC(=O)O
What was measured:
human IL-23R = biological target: T1, human IL-23R (Homo sapiens, UniProt Q5VWK5); test: biochemical
T1 sequence (Q5VWK5 22-629): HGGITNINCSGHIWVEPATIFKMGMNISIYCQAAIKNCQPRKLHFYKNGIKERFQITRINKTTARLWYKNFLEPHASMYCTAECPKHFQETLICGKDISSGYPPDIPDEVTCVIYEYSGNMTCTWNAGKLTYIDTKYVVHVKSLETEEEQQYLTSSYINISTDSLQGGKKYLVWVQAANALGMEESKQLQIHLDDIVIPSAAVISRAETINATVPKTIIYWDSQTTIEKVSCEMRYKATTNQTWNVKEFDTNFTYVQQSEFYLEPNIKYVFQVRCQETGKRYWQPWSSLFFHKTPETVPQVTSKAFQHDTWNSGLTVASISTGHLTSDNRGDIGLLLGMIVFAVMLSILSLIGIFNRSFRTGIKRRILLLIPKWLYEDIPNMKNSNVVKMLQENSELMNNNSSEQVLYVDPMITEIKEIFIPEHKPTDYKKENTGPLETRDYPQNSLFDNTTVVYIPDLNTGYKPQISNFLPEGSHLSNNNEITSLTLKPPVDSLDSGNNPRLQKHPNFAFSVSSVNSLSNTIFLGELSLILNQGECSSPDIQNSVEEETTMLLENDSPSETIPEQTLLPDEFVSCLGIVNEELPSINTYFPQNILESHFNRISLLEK
Procedure, shortened: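 Membranes from HEK293 cells stably expressing Nluc-tagged human IL-23R were incubated 2 h at room temperature with test compound and a fluorophore-labelled tracer. After substrate addition, loss of BRET (TAMRA over luciferase emission) reported tracer displacement. A 4PL fit gave IC50 values.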

[1] = biological target: IL-23 mediated signalling (Homo sapiens, UniProt Q5VWK5); test: Functional inhibition of IL-23 mediated STAT3 signalling (phospho-STAT3 MSD) in DB cells; type: cell-based; settings: for Emax: maximal inhibitory response, read-out: hIL-23 (pSTAT3) antagonist % inhibition
Procedure, shortened: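 DB cells preincubated with inhibitor 15 min at 37 °C, then stimulated 90 min with EC80 human IL-23; lysate phospho-STAT3 measured by MSD electrochemiluminescence. Signal normalized to IL-23-alone and buffer controls; IC50 and maximal % inhibition from 4-parameter logistic fit.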

[2] = Peptide stability in simulated intestinal fluid (SIF); type: in vitro ADME; settings: pig, 37 °C, porcine pancreatin; for remaining at 1 h, 10 µM: pH 6.8, 1 h; for remaining at 4 h, 10 µM: pH 6.8, 4 h, read-out: SIF (% remaining 4 h)
Procedure, shortened: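 Peptides were incubated at 37 °C with gentle shaking in pH 6.8 potassium phosphate SIF containing porcine pancreatin (10 g/L). Supernatants were analysed by LC-HRMS. Percent remaining at each timepoint, including 4 h, was calculated relative to time zero from absolute peak areas.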

[3] = Peptide stability in simulated gastric fluid (SGF); type: in vitro ADME; settings: pig, simulated gastric fluid (SGF) with porcine pepsin (3.2 g/L), pH 1.2, 10 µM, 37 °C, porcine pepsin; for remaining at 1 h, 10 µM: pH 1.2, 1 h, read-out: SGF (% remaining 1 h); for remaining at 4 h, 10 µM: pH 1.2, 4 h, read-out: SGF (% remaining 4 h)
Procedure, shortened: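 Peptide incubated at 37 °C with gentle shaking in SGF (NaCl, pH 1.2). Samples centrifuged, diluted and analysed by LC-HRMS; percent remaining at each timepoint from absolute peak areas relative to time zero, with 4 h as the reference point.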

[4] = biological target: T2, Nluc-IL23R fusion protein (human, UniProt Q5VWK5 22-629); test: BRET competition vs TAMRA-labelled peptide, Nluc-IL23R membranes
T2 construct: range 22-629; Stably expressed in HEK293 cells; also called hIL-23R; human IL-23R; not shown: Nanoluc protein (N1371, Promega) at the N-terminus, after a secretion signal
T2 sequence (looked up): T1 sequence (Q5VWK5 22-629)

[5] = biological target: T3, human IL-23R endogenously expressed on DB cells (human, UniProt Q5VWK5 24-629); test: cell-based or functional assay
T3 sequence (looked up): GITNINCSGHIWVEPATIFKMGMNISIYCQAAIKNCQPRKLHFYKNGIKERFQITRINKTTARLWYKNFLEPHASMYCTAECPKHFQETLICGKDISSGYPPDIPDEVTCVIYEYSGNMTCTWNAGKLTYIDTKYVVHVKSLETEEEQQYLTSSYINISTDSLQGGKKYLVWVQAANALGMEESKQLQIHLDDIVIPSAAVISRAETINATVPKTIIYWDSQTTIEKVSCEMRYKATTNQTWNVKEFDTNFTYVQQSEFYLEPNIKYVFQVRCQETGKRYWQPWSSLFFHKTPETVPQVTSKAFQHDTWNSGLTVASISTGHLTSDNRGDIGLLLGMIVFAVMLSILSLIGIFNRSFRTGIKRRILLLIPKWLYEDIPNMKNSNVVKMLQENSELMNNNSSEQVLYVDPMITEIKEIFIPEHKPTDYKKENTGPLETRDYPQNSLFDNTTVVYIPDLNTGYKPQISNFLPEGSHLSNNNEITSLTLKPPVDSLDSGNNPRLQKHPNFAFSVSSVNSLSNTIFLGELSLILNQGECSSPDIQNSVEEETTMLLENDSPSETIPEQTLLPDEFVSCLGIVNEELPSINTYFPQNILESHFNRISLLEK

[6] = Table 3-2, DB cells, hIL-23 at EC80

**Q.** Which results are given for `CC(C)C[C@]1(C)NC(=O)[C@H](Cc2ccc3ccccc3c2)NC(=O)[C@H](Cc2ccc(OCCN)cc2)NC(=O)[C@@H]2CCNC(=O)CC[C@H](NC(=O)[C@H](CO)NC(=O)Cc3ccc(cc3)CNC(=O)CC[C@@H](C(=O)N[C@@H](CCN)C(=O)N[C@@H](Cc3cccnc3)C(N)=O)NC1=O)C(=O)N[C@@H](Cc1c[nH]c3ccccc13)C(=O)N[C@@H](CCC(N)=O)C(=O)N2` [Ref 122, [4-Aminomethyl-phenylacetyl](1c)*SE(2c)WQ[Dab](2c)[Y(2-aminoethoxy)][2-Nal][2-Me-Leu]E(1 c)[Dab][3-(3-Pyridyl)-Ala]-[NH2], reference compound]?
**A.** % displacement (hIL-23R NIuc) (human IL-23R): 97%; IC50 (human IL-23R): 0.0066 nM; Ki (human IL-23R): 0.00541 nM; IC50 [1]: 0.028 nM; Emax [1, 6]: 99%; remaining at 1 h, 10 µM [2]: 73%; remaining at 4 h, 10 µM [2]: 25%; remaining at 1 h, 10 µM [3]: 92%; remaining at 4 h, 10 µM [3]: 90%

**Q.** Which “% displacement (hIL-23R NIuc)” value (human IL-23R) does the source give for `CC(C)C[C@@H]1NC(=O)[C@H](Cc2c[nH]c3ccccc23)NC(=O)[C@H](Cc2c[nH]c3ccccc23)NC(=O)[C@@H]2CSCC(=O)CSC[C@H](NC(=O)[C@H](CO)NC(=O)[C@@H](NC(=O)[C@@H](N)CC(=O)O)CCC(=O)NCCCC[C@@H](C(=O)N[C@@H](CCCNC(=N)N)C(N)=O)NC1=O)C(=O)N[C@@H](Cc1c[nH]c3ccccc13)C(=O)N[C@@H](CCC(N)=O)C(=O)N2` [Ref 4, H-DE(1c)SC(2a)WQC(2a)WWLK(1c)R-[NH2], reference compound] (HELM PEPTIDE1{D.E.S.C.W.Q.C.W.W.L.K.R.[am]}|CHEM1{[O=C(C[*:1])C[*:2]]}$PEPTIDE1,PEPTIDE1,2:R3-11:R3|PEPTIDE1,CHEM1,4:R3-1:R1|PEPTIDE1,CHEM1,7:R3-1:R2$$$V2.0) here?
**A.** 100%

**Q.** What about the IC50 (human IL-23R) of the same molecule?
**A.** 180 nM

**Q.** What about the Ki (human IL-23R) of the same molecule?
**A.** 143 nM

**Q.** And the IC50 ([1]; Table 3-2, DB cells, hIL-23 at EC80, read-out: hIL-23 (pSTAT3) antagonist IC50)?
**A.** 850 nM

**Q.** And the Emax [1, 6]?
**A.** 87%

**Q.** What about the remaining at 1 h, 10 µM [2] of the same molecule?
**A.** 0%

**Q.** And the remaining at 4 h, 10 µM [2]?
**A.** 0%

**Q.** And the remaining at 1 h, 10 µM [3]?
**A.** 1%

**Q.** And the remaining at 4 h, 10 µM [3]?
**A.** 0%

B1: Compound 63 (peptide)
peptide: KIVWQE[AEF][2Nal][αMeL]EP[3Pal]-NHMe
modifications: lactam 1-10; lactam (positions not given here); not fully specified (bridges); printed as K(1c)(6c)^{†}IVWQE(6c)[Y(2-aminoethoxy)][2-Nal][2-Me-Leu]E(1c)P[3-(3-Pyridyl)-Ala]-[NHMe]
**Q.** For B1, which % displacement [4] is on record?
**A.** 98%

B2: Compound 76 (peptide)
peptide: KTVWQE[AEF][2Nal][Dab]E[Dab][3Pal]
modifications: lactam 1-10, 9-C; lactam (positions not given here); not fully specified (bridges); printed as K(1c)(6c)^{†}TVWQE(6c)[Y(2-aminoethoxy)][2-Nal][Dab](7c)E(1c)[Dab][3-(3-Pyridyl)-Ala](7c)^{‡}
**Q.** For B2, which % displacement [4] is on record?
**A.** 92%

B3: Compound 79 (peptide)
peptide: K[βAla][Trp(1-Me)]QE[AEF][2Nal][αMeL]E[Dab][3Pal]-NHMe
modifications: lactam 1-9, 1-5; not fully specified; printed as K(1c)(6c)^†[3-Aminopropanoyl][1-Me-Trp]QE(6c)[Y(2-aminoethoxy)][2-Nal][2-Me-Leu]E(1c)[Dab][3-(3-Pyridyl)-Ala]-[NHMe], (1c) [2,11] lactam, (6c) [2,7] lactam, ^† alpha-amine in bridge; also: alpha-amine of residue 1 in bridge, which of the two lactams not given here
**Q.** For B3, which % displacement [4] is on record?
**A.** 100%

B4: Compound 80 (peptide)
peptide: [NMeK][βAla]WQE[AEF][2Nal][αMeL]E[Dab][3Pal]-NHMe
modifications: lactam 1-9, 1-5; not fully specified; printed as [N-Me-Lys](1c)(6c)^†[3-Aminopropanoyl]WQE(6c)[Y(2-aminoethoxy)][2-Nal][2-Me-Leu]E(1c)[Dab][3-(3-Pyridyl)-Ala]-[NHMe], (1c) [2,11] lactam, (6c) [2,7] lactam, ^† alpha-amine in bridge; also: alpha-amine of residue 1 in bridge, which of the two lactams not given here
**Q.** Which % displacement [4] does the source give for B4 here?
**A.** 102%

B5: Compound 91 (peptide)
peptide: [Orn][βAla]WQE[AEF][2Nal][αMeL]E[Dab][3Pal]-NHMe
modifications: lactam 1-9, 1-5; not fully specified; printed as [Orn](1c)(6c)^†[3-Aminopropanoyl]WQE(6c)[Y(2-aminoethoxy)][2-Nal][2-Me-Leu]E(1c)[Dab][3-(3-Pyridyl)-Ala]-[NHMe], (1c) [2,11] lactam, (6c) [2,7] lactam, ^† alpha-amine in bridge; also: alpha-amine of residue 1 in bridge, which of the two lactams not given here
**Q.** Which % displacement [4] does the source give for B5 here?
**A.** 100%

B6: Compound 10 (peptide)
peptide: [dOrn]TVWQD[AEF][2Nal][αMeL]E[Dab][3Pal]-NH2
modifications: lactam 1-10, N-6
SMILES: CC(C)C[C@]1(C)NC(=O)[C@H](Cc2ccc3ccccc3c2)NC(=O)[C@H](Cc2ccc(OCCN)cc2)NC(=O)[C@@H]2CC(=O)N[C@H](CCCNC(=O)CC[C@@H](C(=O)N[C@@H](CCN)C(=O)N[C@@H](Cc3cccnc3)C(N)=O)NC1=O)C(=O)N[C@@H]([C@@H](C)O)C(=O)N[C@@H](C(C)C)C(=O)N[C@@H](Cc1c[nH]c3ccccc13)C(=O)N[C@@H](CCC(N)=O)C(=O)N2
**Q.** Which % displacement [4] does the source give for B6 here?
**A.** 107%

B7: Compound 99 (peptide)
peptide: [β3hK]GWQE[AEF][2Nal][αMeL]E[Dab][3Pal]-NHMe
modifications: lactam 1-9; lactam (positions not given here); not fully specified (bridges); also: beta-amine of residue 1 is in one of the two lactams
**Q.** Which “hIL-23 (pSTAT3) antagonist % inhibition” value [5] does the source give for B7 here?
**A.** 100%

**Q.** And the “hIL-23 (pSTAT3) antagonist IC50” value [5]?
**A.** 0.014 nM

**Q.** With [4‑Aminomethyl‑phenylacetyl]SCWQC[AEF][2Nal][αMeL]ES-NH2 (lactam (positions not given here); bridge 3-6; not fully specified (bridges)) [Ref 81] as the molecule, how does the “hIL-23 (pSTAT3) antagonist % inhibition” value [5] read?
**A.** 95%

**Q.** And the “hIL-23 (pSTAT3) antagonist IC50” value [5]?
**A.** 21 nM

**Q.** With [4‑Aminomethyl‑phenylacetyl]SEWQ[Dab][AEF][2Nal][αMeL]E[Dab]-NH2 (lactam (positions not given here); bridge 3-6; not fully specified (bridges)) [Ref 125] as the molecule, how does the “hIL-23 (pSTAT3) antagonist IC50” value [5] read?
**A.** 21 nM

From patent EP4471048A1, “PEPTIDE INHIBITORS OF INTERLEUKIN-23 RECEPTOR” (Zealand Pharma A/S, priority 2023, dated 2024)
